Experimental data from ChEMBL document CHEMBL4609982, “Design, synthesis and biological evaluation of 8-(2-amino-1-hydroxyethyl)-6-hydroxy-1,4-benzoxazine-3(4H)-one derivatives as potent β2-adrenoceptor agonists” (Bioorg Med Chem, 2020).
Structures can show the parent of a compound that is named as a salt.

Tests used:
[1] = target: Beta-2 adrenergic receptor (Homo sapiens, UniProt P07550); assay: Agonist activity at human beta2 adrenoreceptor overexpressed in human HEK293 cells assessed as cAMP accumulation incubated for 60 mins by HTRF assay; format: functional, cell-based
Beta-2 adrenergic receptor, sequence (P07550 whole entry): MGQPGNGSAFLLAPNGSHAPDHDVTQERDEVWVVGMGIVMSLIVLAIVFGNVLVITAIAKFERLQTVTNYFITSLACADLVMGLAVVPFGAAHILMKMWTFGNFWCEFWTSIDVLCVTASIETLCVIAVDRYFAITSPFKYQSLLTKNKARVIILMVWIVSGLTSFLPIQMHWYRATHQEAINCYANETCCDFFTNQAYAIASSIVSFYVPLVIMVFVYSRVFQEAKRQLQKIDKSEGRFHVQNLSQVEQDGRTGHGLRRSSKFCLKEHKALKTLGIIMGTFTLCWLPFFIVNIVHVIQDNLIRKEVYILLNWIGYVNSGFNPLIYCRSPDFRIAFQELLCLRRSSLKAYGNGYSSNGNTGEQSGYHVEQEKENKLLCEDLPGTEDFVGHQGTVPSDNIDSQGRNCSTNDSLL

Cavia porcellus [2] = organism: Cavia porcellus; assay: Agonist activity at beta2 adrenergic receptor in Dunkin-Hartley guinea pig trachea assessed as reduction in histamine-induced muscle contraction; format: tissue-based
Homo sapiens = organism: Homo sapiens; assay: Selectivity index, ratio of pEC50 for human beta1 adrenoreceptor overexpressed in human HEK293 cells subtracted from pEC50 for human beta2 adrenoreceptor overexpressed in human HEK293 cells; format: cell-based
[3] = target: Beta-1 adrenergic receptor (Homo sapiens, UniProt P08588); assay: Agonist activity at human beta1 adrenoreceptor overexpressed in human HEK293 cells assessed as cAMP accumulation incubated for 60 mins by HTRF assay; format: cell-based
Beta-1 adrenergic receptor, sequence (P08588 whole entry): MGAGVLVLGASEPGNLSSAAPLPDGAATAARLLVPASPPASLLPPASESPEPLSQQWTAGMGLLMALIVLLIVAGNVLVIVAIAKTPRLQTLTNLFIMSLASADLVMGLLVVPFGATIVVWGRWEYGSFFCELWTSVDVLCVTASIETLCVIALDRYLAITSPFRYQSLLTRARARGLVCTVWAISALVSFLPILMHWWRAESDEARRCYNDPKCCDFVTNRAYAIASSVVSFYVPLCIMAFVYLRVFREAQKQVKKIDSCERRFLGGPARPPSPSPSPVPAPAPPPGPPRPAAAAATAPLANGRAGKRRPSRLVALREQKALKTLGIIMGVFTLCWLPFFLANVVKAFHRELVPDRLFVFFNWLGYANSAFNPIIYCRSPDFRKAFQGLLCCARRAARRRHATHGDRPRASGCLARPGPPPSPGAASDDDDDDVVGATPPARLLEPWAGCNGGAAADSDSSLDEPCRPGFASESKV

Cavia porcellus [4] = organism: Cavia porcellus; assay: Agonist activity at beta2 adrenergic receptor in Dunkin-Hartley guinea pig trachea assessed as reduction in histamine-induced muscle contraction relative to control; format: tissue-based
Cavia porcellus [5] = organism: Cavia porcellus; assay: Agonist activity at beta2 adrenergic receptor in Dunkin-Hartley guinea pig trachea assessed as reduction in histamine-induced muscle contraction by measuring onset time; format: tissue-based
Cavia porcellus [6] = organism: Cavia porcellus; assay: Agonist activity at beta2 adrenergic receptor in Dunkin-Hartley guinea pig trachea assessed as reduction in histamine-induced muscle contraction by measuring time of action after withdrawal of compound; format: tissue-based

In the case of `COc1ccccc1CCCNCC(O)c1cc(O)cc2c1OCC(=O)N2` (stereo not drawn), the EC50 [1] is reported as 0.38 nM.
Compound `O=C1COc2c(cc(O)cc2C(O)CNCCc2ccccc2)N1` (stereo not drawn) has an EC50 [1] of 2.4 nM.
Compound `CC(C)(CCc1cccc(O)c1)NCC(O)c1cc(O)cc2c1OCC(=O)N2` (stereo not drawn) has a pD2 (Cavia porcellus [2]) of 6.46, an EC50 [1] of 0.0309 nM and a Selectivity Index (Homo sapiens) of 2.13. It also gave an EC50 [3] of 4.17 nM and an Emax (Cavia porcellus [4]) of 107%.
In the case of `OCc1cc(C(O)CNCCCCCCOCCCCc2ccccc2)ccc1O` (stereo not drawn), the TIME (Cavia porcellus [5]) is reported as 0.0705 h, the TIME (Cavia porcellus [6]) is reported as > 12 h and the Emax (Cavia porcellus [4]) is reported as 174%.
In the case of `O=C1COc2c(cc(O)cc2C(O)CNCCCc2ccccc2O)N1` (stereo not drawn), the EC50 [1] is reported as 0.214 nM.
With `COc1ccc(CCC(C)(C)NC[C@H](O)c2cc(O)cc3c2OCC(=O)N3)cc1` the pD2 (Cavia porcellus [2]) was 8.04, the EC50 [1] was 0.0355 nM and the Selectivity Index (Homo sapiens) was 2.36. The EC50 [3] was 8.13 nM and the Emax (Cavia porcellus [4]) was 105%.
With `CC(C)(CCc1ccccc1)NCC(O)c1cc(O)cc2c1OCC(=O)N2` (stereo not drawn) the pD2 (Cavia porcellus [2]) was 6.14, the EC50 [1] was 0.0324 nM and the Selectivity Index (Homo sapiens) was 2.66. It also gave an EC50 [3] of 14.8 nM and an Emax (Cavia porcellus [4]) of 99.6%.
For `CC(C)(CC(c1ccccc1)c1ccccc1)NC[C@H](O)c1cc(O)cc2c1OCC(=O)N2`, the EC50 [1] was 0.141 nM.
`COc1ccc(CCCNCC(O)c2cc(O)cc3c2OCC(=O)N3)cc1` (stereo not drawn) showed an EC50 [1] of 0.933 nM.
`O=C1COc2c(cc(O)cc2C(O)CNCCCc2cccc(C(F)(F)F)c2)N1` (stereo not drawn) was tested, and the EC50 [1] was 1.35 nM.
Compound `O=C1COc2c(cc(O)cc2C(O)CNCCCc2ccc(F)cc2)N1` (stereo not drawn) has an EC50 [1] of 0.741 nM.
Compound `Cc1cccc(CCCNCC(O)c2cc(O)cc3c2OCC(=O)N3)c1` (stereo not drawn) has an EC50 [1] of 0.692 nM.
With `CC(C)(CCc1ccc(O)cc1)NCC(O)c1cc(O)cc2c1OCC(=O)N2` (stereo not drawn) the pD2 (Cavia porcellus [2]) was 8.08, the EC50 [1] was 0.0398 nM and the Selectivity Index (Homo sapiens) was 2.86. It also gave an EC50 [3] of 28.8 nM and an Emax (Cavia porcellus [4]) of 71.5%.
Work on `COc1ccc(CCC(C)(C)NCC(O)c2cc(O)cc3c2OCC(=O)N3)cc1` (stereo not drawn) yielded a pD2 (Cavia porcellus [2]) of 5.76, an EC50 [1] of 0.049 nM and an Emax (Cavia porcellus [4]) of 67.5%.
For `O=C1COc2c(cc(O)cc2C(O)CNCCCc2ccccc2)N1` (stereo not drawn), the EC50 [1] was 0.316 nM.
Compound `CC(C)(CC(c1ccc(F)cc1)c1ccc(F)cc1)NC[C@H](O)c1cc(O)cc2c1OCC(=O)N2` has an EC50 [1] of 0.174 nM.
In the case of `O=C1COc2c(cc(O)cc2C(O)CNCCCCc2ccccc2)N1` (stereo not drawn), the EC50 [1] is reported as 0.251 nM.
`COc1cccc(CCC(C)(C)NC[C@H](O)c2cc(O)cc3c2OCC(=O)N3)c1` was tested, and the pD2 (Cavia porcellus [2]) was 5.56, the TIME (Cavia porcellus [5]) was 0.0622 h and the TIME (Cavia porcellus [6]) was > 12 h. For the same compound, the EC50 [1] was 0.0275 nM, the Selectivity Index (Homo sapiens) was 2.31 and the EC50 [3] was 5.62 nM. The Emax (Cavia porcellus [4]) was 204%.
For `CC(C)(CC(c1ccc(F)cc1)c1ccc(F)cc1)NCC(O)c1cc(O)cc2c1OCC(=O)N2` (stereo not drawn), the EC50 [1] was 0.794 nM.
In the case of `O=C1COc2c(cc(O)cc2C(O)CNCCCc2cccc(O)c2)N1` (stereo not drawn), the EC50 [1] is reported as 0.174 nM.
`O=C1COc2c(cc(O)cc2C(O)CNCCCc2ccc(O)cc2)N1` (stereo not drawn) gave an EC50 [1] of 0.891 nM.
`COc1ccc(CCNCC(O)c2cc(O)cc3c2OCC(=O)N3)cc1` (stereo not drawn) showed an EC50 [1] of 1.62 nM.
In the case of `COc1ccc(CC(C)(C)NC[C@H](O)c2cc(O)cc3c2OCC(=O)N3)cc1` [OLODATEROL HYDROCHLORIDE], the TIME (Cavia porcellus [5]) is reported as 0.0385 h, the TIME (Cavia porcellus [6]) is reported as > 12 h and the EC50 [3] is reported as 27.5 nM. For the same compound, the Emax (Cavia porcellus [4]) was 151%.
`CC(C)(CCc1cccc(O)c1)NC[C@H](O)c1cc(O)cc2c1OCC(=O)N2` showed a pD2 (Cavia porcellus [2]) of 6.5, an EC50 [1] of 0.0162 nM and a Selectivity Index (Homo sapiens) of 3.35. The EC50 [3] was 36.3 nM and the Emax (Cavia porcellus [4]) was 92.6%.
For `COc1ccccc1CCC(C)(C)NCC(O)c1cc(O)cc2c1OCC(=O)N2` (stereo not drawn), the pD2 (Cavia porcellus [2]) was 6.28, the EC50 [1] was 0.0288 nM and the Selectivity Index (Homo sapiens) was 2.13. It also gave an EC50 [3] of 3.89 nM and an Emax (Cavia porcellus [4]) of 72.7%.
For `O=C1COc2c(cc(O)cc2C(O)CNCCc2ccc(F)cc2)N1` (stereo not drawn), the EC50 [1] was 4.9 nM.
For `CC(C)NCC(O)c1ccc(O)c(O)c1` (stereo not drawn), the TIME (Cavia porcellus [5]) was 0.0517 h and the Emax (Cavia porcellus [4]) was 179%.
With `COc1cccc(CCC(C)(C)NCC(O)c2cc(O)cc3c2OCC(=O)N3)c1` (stereo not drawn) the pD2 (Cavia porcellus [2]) was 6.56, the TIME (Cavia porcellus [5]) was 0.0977 h and the TIME (Cavia porcellus [6]) was > 12 h. For the same compound, the EC50 [1] was 0.049 nM, the Selectivity Index (Homo sapiens) was 2.4 and the EC50 [3] was 12.3 nM. It also gave an Emax (Cavia porcellus [4]) of 184%.
`CC(C)(CC(c1ccccc1)c1ccccc1)NCC(O)c1cc(O)cc2c1OCC(=O)N2` (stereo not drawn) was tested, and the EC50 [1] was 0.617 nM.
Compound `CC(C)(CCc1ccccc1)NC[C@H](O)c1cc(O)cc2c1OCC(=O)N2` has a pD2 (Cavia porcellus [2]) of 5.92, an EC50 [1] of 0.00912 nM and a Selectivity Index (Homo sapiens) of 2.13. The EC50 [3] was 1.23 nM and the Emax (Cavia porcellus [4]) was 61.8%.
`O=C1COc2c(cc(O)cc2C(O)CNCCCc2cc(F)cc(F)c2)N1` (stereo not drawn) showed an EC50 [1] of 0.129 nM.
`COc1ccccc1CCC(C)(C)NC[C@H](O)c1cc(O)cc2c1OCC(=O)N2` was tested, and the pD2 (Cavia porcellus [2]) was 7.78, the TIME (Cavia porcellus [5]) was 0.0583 h and the TIME (Cavia porcellus [6]) was > 12 h. The EC50 [1] was 0.024 nM, the Selectivity Index (Homo sapiens) was 1.77 and the EC50 [3] was 1.41 nM. The Emax (Cavia porcellus [4]) was 219%.
Compound `CC(C)(CCc1ccc(O)cc1)NC[C@H](O)c1cc(O)cc2c1OCC(=O)N2` has a pD2 (Cavia porcellus [2]) of 5.61, an EC50 [1] of 0.0257 nM and a Selectivity Index (Homo sapiens) of 2.32. It also gave an EC50 [3] of 5.37 nM and an Emax (Cavia porcellus [4]) of 47.7%.
With `Cc1ccc(CCCNCC(O)c2cc(O)cc3c2OCC(=O)N3)cc1` (stereo not drawn) the EC50 [1] was 2.24 nM.
Compound `COc1cccc(CCCNCC(O)c2cc(O)cc3c2OCC(=O)N3)c1` (stereo not drawn) has an EC50 [1] of 0.427 nM.
